The test concerns N-myc protein. The experiment in a line: In-cell immunostaining assay for decrease of N-myc protein level in neuroblastoma cells. The class given is cell-based. Conditions: human neuroblastoma cell lines (Kelly, IMR32, SK-N-BE(2)); treated overnight or up to 3 days; N-myc signal normalized over total protein; read-out: Activity (EC50 for decreasing N-myc protein level). As to the method:
Human neuroblastoma cell lines were obtained from either Millipore Sigma, St. Louis, MO (Kelly cells) or American Type Culture Collection, Manassas, VA (IMR32 and SK-N-BE(2) cells). Cells were cultured in RPMI1640 medium (Corning, New York, NY), supplemented with 10% fetal bovine serum, 100 unit/mL penicillin and 100 μg/mL streptomycin (Corning, New York, NY) at 37 degree Celsius with 5% CO2 in air atmosphere. Cells cultured in flat clear bottom, black 96-well plates (Corning, New York, NY) were treated with different concentrations of a compound of the invention, which was dissolved in the culture media (200 μL/well), overnight or up to 3 days. Cells were fixed with 4% paraformaldehyde (in Phosphate-Buffered Saline or PBS, 100 μL/well) for 30 minutes at room temperature. Cells were briefly washed three times with PBS afterwards, and then treated with PBS containing 0.1% Triton X-100 (100 μL/well) for 30 minutes at room temperature. For […], cells were further treated with PBS containing 0.01% IRDye 700DX NHS Ester (LI-COR Biosciences, Lincoln, NE. 100 μL/well) for 30 minutes at room temperature. Cells were again washed three times with PBS, and then treated with a Tris-buffered saline solution with 0.1% Tween 20 (TBST) and 5% non-fat milk (50 μL/well) for 1 hour at room temperature. Cells were then treated with TBST with 5% non-fat milk (50 μL/well) containing a mouse anti N-Myc antibody (Clone B8.4.B, 1:500 dilution, Santa Cruz Biotechnology, Santa Cruz, CA), or a combination of a rabbit anti-Histone H3 (phospho S10) antibody (Clone EPR17246, 1:10000 dilution, abcam, Cambridge, MA) and a mouse anti-Histone H3 antibody (Clone 1G1, 1:250 dilution, Santa Cruz Biotechnology, Santa Cruz, CA) overnight at 4 degree Celsius in the dark. Cells were washed three times with TBST, and then treated with TBST with 5% non-fat milk (50 μL/well) containing an IRDye 800CW donkey anti-mouse IgG antibody (1:1000 dilution, LI-COR Biosciences, Lincoln, NE) for N-myc staining, or IRDye® 800CW donkey anti-rabbit IgG and IRDye 680RD donkey anti-mouse IgG antibodies (1:1000 dilution, LI-COR Biosciences, Lincoln, NE) for Histone H3 (phospho S10) and Histone H3 staining, incubated for 1 hour at room temperature in the dark. Cells were then washed four times with TBST and the plate was scanned using an Odyssey 9120 Imaging System (LI-COR Biosciences, Lincoln, NE). Signals for N-myc, total protein, Histone H3 (phospho S10), and Histone H3 were obtained from the images using the ImageStudio software (Version 4.0.21, LI-COR Biosciences, Lincoln, NE). Normalized signals for N-myc (over total protein), and Histone H3 (phospho S10) (over Histone H3) were plotted in Prism 7 software (GraphPad Software, San Diego, CA). A four-parameter dose-response curve was fitted using a variable slope model and the EC50 was calculated in Prism 7 software (GraphPad Software, San Diego, CA).

Among the data in patent US12545654B2 (STEMSYNERGY THERAPEUTICS, INC., priority 2020, dated 2026) are EC50 values, retold here.

Bounds are passed on as bounds.

The term EC50 denotes the concentration that produces a half-maximal response. Consider `Cc1nc(NC(=O)C2(C(=O)Nc3ccc(F)cc3Cl)CC2)sc1C(=O)Nc1cc(C(F)(F)F)ccc1Cl` [SSTA-0247, N-(2-chloro-4-fluorophenyl)-N-(5-((2-chloro-5-(trifluoromethyl)phenyl)carbamoyl)-4-methylthiazol-2-yl)cyclopropane-1,1-dicarboxamide], for which the concentration for a half-maximal effect (EC50) was above 1 µM.

On to `O=C(Nc1ccc(Cl)c(Cl)c1)c1sc(NC(=O)C2(C(=O)Nc3ccc(F)cc3)CC2)nc1C(F)(F)F` [SSTA-0194, N-(5-((3,4-dichlorophenyl)carbamoyl)-4-(trifluoromethyl)thiazol-2-yl)-N-(4-fluorophenyl)cyclopropane-1,1-dicarboxamide], for which the EC50 is above 1 µM. Then `O=C(Nc1cc(C(F)(F)F)ccc1Cl)c1sc(NC(=O)C2(C(=O)Nc3cc(F)cc(F)c3)CC2)nc1C1CC1` [SSTA-0263, N-(5-((2-chloro-5-(trifluoromethyl)phenyl)carbamoyl)-4-cyclopropylthiazol-2-yl)-N-(3,5-difluorophenyl)cyclopropane-1,1-dicarboxamide], with below 0.25 µM. On to `COc1cc(F)cc(NC(=O)C2(C(=O)Nc3nc(C)c(C(=O)Nc4cc(C(F)(F)F)ccc4Cl)s3)CC2)c1` [SSTA-0241, N-(5-((2-chloro-5-(trifluoromethyl)phenyl)carbamoyl)-4-methylthiazol-2-yl)-N-(3-fluoro-5-methoxyphenyl)cyclopropane-1,1-dicarboxamide], for which the concentration for a half-maximal effect (EC50) lay within 0.25 to 1 µM. The figure for `Cc1nc(NC(=O)C2(C(=O)Nc3cccc(F)c3)CC2)sc1C(=O)Nc1cc(C(F)(F)F)ccc1Cl` [SSTA-0171, N-(5-((2-chloro-5-(trifluoromethyl)phenyl)carbamoyl)-4-methylthiazol-2-yl)-N-(3-fluorophenyl)cyclopropane-1,1-dicarboxamide] is above 1 µM.

Regarding “N-(5-((2-chloro-5-(trifluoromethyl)phenyl)carbamoyl)-4-methylthiazol-2-yl)-N-(3-fluoro-5-(trifluoromethyl)phenyl)cyclopropane-1,1-dicarboxamide [SSTA-0233]”, the EC50 lay in the range of 0.25 to 1 µM. `Cc1nc(NC(=O)C2(C(=O)Nc3cc(F)ccc3F)CC2)sc1C(=O)Nc1cc(C(F)(F)F)ccc1Cl` [SSTA-0239, N-(5-((2-chloro-5-(trifluoromethyl)phenyl)carbamoyl)-4-methylthiazol-2-yl)-N-(2,5-difluorophenyl)cyclopropane-1,1-dicarboxamide]: the EC50 is above 1 µM.

In the case of `O=C(Nc1cccc(C(F)(F)F)c1)c1sc(NC(=O)C2(C(=O)Nc3ccc(F)cc3)CC2)nc1-c1ccccc1`, the concentration giving a half-maximal response (EC50) was above 1 µM. Regarding `Cc1nc(NC(=O)C2(C(=O)Nc3ccc(Cl)c(F)c3)CC2)sc1C(=O)Nc1cc(C(F)(F)F)ccc1Cl` [SSTA-0236, N-(4-chloro-3-fluorophenyl)-N-(5-((2-chloro-5-(trifluoromethyl)phenyl)carbamoyl)-4-methylthiazol-2-yl)cyclopropane-1,1-dicarboxamide], the EC50 is 0.25 to 1 µM. Turning to `O=C(Nc1ccc(Cl)c(Cl)c1)c1sc(NC(=O)C2(C(=O)Nc3ccc(F)cc3)CC2)nc1-c1ccccc1`, the EC50 was above 1 µM.

On to `Cc1nc(NC(=O)C2(C(=O)Nc3cc(F)ccn3)CC2)sc1C(=O)Nc1cc(C(F)(F)F)ccc1Cl` [SSTA-0252, N-(5-((2-chloro-5-(trifluoromethyl)phenyl)carbamoyl)-4-methylthiazol-2-yl)-N-(4-fluoropyridin-2-yl)cyclopropane-1,1-dicarboxamide], for which the EC50 was above 1 µM. As for `COc1c(F)cccc1NC(=O)C1(C(=O)Nc2nc(C)c(C(=O)Nc3cc(C(F)(F)F)ccc3Cl)s2)CC1` [SSTA-0240, N-(5-((2-chloro-5-(trifluoromethyl)phenyl)carbamoyl)-4-methylthiazol-2-yl)-N-(3-fluoro-2-methoxyphenyl)cyclopropane-1,1-dicarboxamide], the half-maximal effective concentration (EC50) was above 1 µM. Turning to `Cc1nc(NC(=O)C2(C(=O)Nc3cc(C(F)(F)F)ccc3Cl)CC2)sc1C(=O)Nc1cc(C(F)(F)F)ccc1Cl` [SSTA-0250, N-(2-chloro-5-(trifluoromethyl)phenyl)-N-(5-((2-chloro-5-(trifluoromethyl)phenyl)carbamoyl)-4-methylthiazol-2-yl)cyclopropane-1,1-dicarboxamide], the EC50 lay within 0.25 to 1 µM. For the molecule `Cc1nc(NC(=O)C2(C(=O)Nc3cc(Cl)cc(C(F)(F)F)c3)CC2)sc1C(=O)Nc1cc(C(F)(F)F)ccc1Cl` [SSTA-0251, N-(3-chloro-5-(trifluoromethyl)phenyl)-N-(5-((2-chloro-5-(trifluoromethyl)phenyl)carbamoyl)-4-methylthiazol-2-yl)cyclopropane-1,1-dicarboxamide], the concentration giving a half-maximal response (EC50) lay in the range of 0.25 to 1 µM.

For `Cc1nc(NC(=O)C2(C(=O)Nc3ccc(Cl)cc3)CC2)sc1C(=O)Nc1cc(C(F)(F)F)ccc1Cl` [SSTA-0169, N-(5-((2-chloro-5-(trifluoromethyl)phenyl)carbamoyl)-4-methylthiazol-2-yl)-N-(4-chlorophenyl)cyclopropane-1,1-dicarboxamide], the EC50 is above 1 µM. In the case of `COc1cc(NC(=O)C2(C(=O)Nc3nc(C)c(C(=O)Nc4cc(C(F)(F)F)ccc4Cl)s3)CC2)cc(C(F)(F)F)c1` [SSTA-0234, N-(5-((2-chloro-5-(trifluoromethyl)phenyl)carbamoyl)-4-methylthiazol-2-yl)-N-(3-methoxy-5-(trifluoromethyl)phenyl)cyclopropane-1,1-dicarboxamide], the EC50 is 0.25 to 1 µM. In the case of `Cc1nc(NC(=O)C2(C(=O)Nc3ccc(F)cc3OC(C)C)CC2)sc1C(=O)Nc1cc(C(F)(F)F)ccc1Cl` [SSTA-0242, N-(5-((2-chloro-5-(trifluoromethyl)phenyl)carbamoyl)-4-methylthiazol-2-yl)-N-(4-fluoro-2-isopropoxyphenyl)cyclopropane-1,1-dicarboxamide], the EC50 was above 1 µM. On to `O=C(Nc1ccc(Cl)c(Cl)c1)c1sc(NC(=O)C2(C(=O)Nc3ccc(F)cc3)CC2)nc1C1CC1`, for which the EC50 is above 1 µM.

For the molecule `Cc1nc(NC(=O)C2(C(=O)Nc3ccccc3Cl)CC2)sc1C(=O)Nc1cc(C(F)(F)F)ccc1Cl` [SSTA-0170, N-(5-((2-chloro-5-(trifluoromethyl)phenyl)carbamoyl)-4-methylthiazol-2-yl)-N-(2-chlorophenyl)cyclopropane-1,1-dicarboxamide], the half-maximal effective concentration (EC50) is above 1 µM. With `Cc1nc(NC(=O)C2(C(=O)Nc3ccc(F)cc3)CC2)oc1C(=O)Nc1ccc(Cl)c(Cl)c1` [SSTA-0191, N-(5-((3,4-dichlorophenyl)carbamoyl)-4-methyloxazol-2-yl)-N-(4-fluorophenyl)cyclopropane-1,1-dicarboxamide], the EC50 was above 1 µM. For the molecule `Cc1nc(NC(=O)C2(C(=O)Nc3ccc(F)cc3)CC2)oc1C(=O)Nc1cccc(C(F)(F)F)c1` [SSTA-0190, N-(4-fluorophenyl)-N-(4-methyl-5-((3-(trifluoromethyl)phenyl)carbamoyl)oxazol-2-yl)cyclopropane-1,1-dicarboxamide], the EC50 is above 1 µM. Regarding `O=C(Nc1cc(C(F)(F)F)ccc1Cl)c1sc(NC(=O)C2(C(=O)Nc3cc(F)cc(C(F)(F)F)c3)CC2)nc1C1CC1` [SSTA-0264, N-(5-((2-chloro-5-(trifluoromethyl)phenyl)carbamoyl)-4-cyclopropylthiazol-2-yl)-N-(3-fluoro-5-(trifluoromethyl)phenyl)cyclopropane-1,1-dicarboxamide], the concentration for a half-maximal effect (EC50) is below 0.25 µM.

For the molecule `Cc1nc(NC(=O)C2(C(=O)Nc3cc(F)cc(Cl)c3)CC2)sc1C(=O)Nc1cc(C(F)(F)F)ccc1Cl` [SSTA-0237, N-(5-((2-chloro-5-(trifluoromethyl)phenyl)carbamoyl)-4-methylthiazol-2-yl)-N-(3-chloro-5-fluorophenyl)cyclopropane-1,1-dicarboxamide], the concentration giving a half-maximal response (EC50) was in the range of 0.25 to 1 µM. For the molecule `Cc1nc(-c2ccc(NC(=O)C3(C(=O)Nc4nc(C)c(C(=O)Nc5cc(C(F)(F)F)ccc5Cl)s4)CC3)cc2)no1` [SSTA-0229, N-(5-((2-chloro-5-(trifluoromethyl)phenyl)carbamoyl)-4-methylthiazol-2-yl)-N-(4-(5-methyl-1,2,4-oxadiazol-3-yl)phenyl)cyclopropane-1,1-dicarboxamide], the concentration for a half-maximal effect (EC50) is above 1 µM.
